Measured values published in ChEMBL document CHEMBL4765227, “Hit to lead optimization of a series of N-[4-(1,3-benzothiazol-2-yl)phenyl]acetamides as monoacylglycerol lipase inhibitors with potential anticancer activity” (Eur J Med Chem, 2016).

What was measured:
Assay type in all cases: functional
Conditions in all cases: read-out: GI
NCI-H23 = assay: Growth inhibition of human NCI-H23 cells at 10 uM incubated for 48 hrs by sulforhodamine B assay relative to control
CCRF-CEM = assay: Growth inhibition of human CCRF-CEM cells at 10 uM incubated for 48 hrs by sulforhodamine B assay relative to control
HCT-116 = assay: Growth inhibition of human HCT-116 cells at 10 uM incubated for 48 hrs by sulforhodamine B assay relative to control
LOX IMVI = assay: Growth inhibition of human LOX IMVI cells at 10 uM incubated for 48 hrs by sulforhodamine B assay relative to control
NCI-H322M = assay: Growth inhibition of human NCI-H322M cells at 10 uM incubated for 48 hrs by sulforhodamine B assay relative to control
SK-OV-3 = assay: Growth inhibition of human SK-OV-3 cells at 10 uM incubated for 48 hrs by sulforhodamine B assay relative to control
M14 = assay: Growth inhibition of human M14 cells at 10 uM incubated for 48 hrs by sulforhodamine B assay relative to control
IGROV-1 = assay: Growth inhibition of human IGROV-1 cells at 10 uM incubated for 48 hrs by sulforhodamine B assay relative to control
SF-539 = assay: Growth inhibition of human SF-539 cells at 10 uM incubated for 48 hrs by sulforhodamine B assay relative to control
HT-29 = assay: Growth inhibition of human HT-29 cells at 10 uM incubated for 48 hrs by sulforhodamine B assay relative to control
786-0 = assay: Growth inhibition of human 786-0 cells at 10 uM incubated for 48 hrs by sulforhodamine B assay relative to control
OVCAR-8 = assay: Growth inhibition of human OVCAR-8 cells at 10 uM incubated for 48 hrs by sulforhodamine B assay relative to control
Hs-578T = assay: Growth inhibition of human Hs-578T cells at 10 uM incubated for 48 hrs by sulforhodamine B assay relative to control
ACHN = assay: Growth inhibition of human ACHN cells at 10 uM incubated for 48 hrs by sulforhodamine B assay relative to control
A549 = assay: Growth inhibition of human A549/ATCC cells at 10 uM incubated for 48 hrs by sulforhodamine B assay relative to control
NCI/ADR-RES = assay: Growth inhibition of human NCI/ADR-RES cells at 10 uM incubated for 48 hrs by sulforhodamine B assay relative to control
HOP-62 = assay: Growth inhibition of human HOP-62 cells at 10 uM incubated for 48 hrs by sulforhodamine B assay relative to control
DU-145 = assay: Growth inhibition of human DU-145 cells at 10 uM incubated for 48 hrs by sulforhodamine B assay relative to control
MDA-MB-231 = assay: Growth inhibition of human MDA-MB-231 cells at 10 uM incubated for 48 hrs by sulforhodamine B assay relative to control
SR = assay: Growth inhibition of human SR cells at 10 uM incubated for 48 hrs by sulforhodamine B assay relative to control
U-251 = assay: Growth inhibition of human U-251 cells at 10 uM incubated for 48 hrs by sulforhodamine B assay relative to control
MDA-MB-435 = assay: Growth inhibition of human MDA-MB-435 cells at 10 uM incubated for 48 hrs by sulforhodamine B assay relative to control
SK-MEL-5 = assay: Growth inhibition of human SK-MEL-5 cells at 10 uM incubated for 48 hrs by sulforhodamine B assay relative to control
UO-31 = assay: Growth inhibition of human UO-31 cells at 10 uM incubated for 48 hrs by sulforhodamine B assay relative to control
CAKI-1 = assay: Growth inhibition of human CAKI-1 cells at 10 uM incubated for 48 hrs by sulforhodamine B assay relative to control
HL-60(TB) = assay: Growth inhibition of human HL-60(TB) cells at 10 uM incubated for 48 hrs by sulforhodamine B assay relative to control
NCI-H522 = assay: Growth inhibition of human NCI-H522 cells at 10 uM incubated for 48 hrs by sulforhodamine B assay relative to control
PC-3 = assay: Growth inhibition of human PC-3 cells at 10 uM incubated for 48 hrs by sulforhodamine B assay relative to control
KM12 = assay: Growth inhibition of human KM12 cells at 10 uM incubated for 48 hrs by sulforhodamine B assay relative to control
MCF7 = assay: Growth inhibition of human MCF7 cells at 10 uM incubated for 48 hrs by sulforhodamine B assay relative to control
SF-295 = assay: Growth inhibition of human SF-295 cells at 10 uM incubated for 48 hrs by sulforhodamine B assay relative to control
SN12C = assay: Growth inhibition of human SN12C cells at 10 uM incubated for 48 hrs by sulforhodamine B assay relative to control
TK-10 = assay: Growth inhibition of human TK-10 cells at 10 uM incubated for 48 hrs by sulforhodamine B assay relative to control
MOLT-4 = assay: Growth inhibition of human MOLT-4 cells at 10 uM incubated for 48 hrs by sulforhodamine B assay relative to control
NCI-H226 = assay: Growth inhibition of human NCI-H226 cells at 10 uM incubated for 48 hrs by sulforhodamine B assay relative to control
MDA-MB-468 = assay: Growth inhibition of human MDA-MB-468 cells at 10 uM incubated for 48 hrs by sulforhodamine B assay relative to control
UACC-62 = assay: Growth inhibition of human UACC-62 cells at 10 uM incubated for 48 hrs by sulforhodamine B assay relative to control
K562 = assay: Growth inhibition of human K562 cells at 10 uM incubated for 48 hrs by sulforhodamine B assay relative to control
BT-549 = assay: Growth inhibition of human BT-549 cells at 10 uM incubated for 48 hrs by sulforhodamine B assay relative to control
NCI-H460 = assay: Growth inhibition of human NCI-H460 cells at 10 uM incubated for 48 hrs by sulforhodamine B assay relative to control
RXF 393 = assay: Growth inhibition of human RXF 393 cells at 10 uM incubated for 48 hrs by sulforhodamine B assay relative to control
OVCAR-4 = assay: Growth inhibition of human OVCAR-4 cells at 10 uM incubated for 48 hrs by sulforhodamine B assay relative to control
COLO 205 = assay: Growth inhibition of human COLO 205 cells at 10 uM incubated for 48 hrs by sulforhodamine B assay relative to control
OVCAR-3 = assay: Growth inhibition of human OVCAR-3 cells at 10 uM incubated for 48 hrs by sulforhodamine B assay relative to control

NS(=O)(=O)c1ccc(NCC(=O)Nc2ccc(-c3nc4ccccc4s3)cc2)cc1
inhibition of growth at 10 µM (NCI-H23): 25.3% | inhibition of growth at 10 µM (CCRF-CEM): 93.8% | inhibition of growth at 10 µM (HCT-116): 74.9% | inhibition of growth at 10 µM (LOX IMVI): 87% | inhibition of growth at 10 µM (NCI-H322M): 12% | inhibition of growth at 10 µM (SK-OV-3): -5.77% | inhibition of growth at 10 µM (M14): 54.4% | inhibition of growth at 10 µM (IGROV-1): 41% | inhibition of growth at 10 µM (SF-539): 8.62% | inhibition of growth at 10 µM (HT-29): 25.5% | inhibition of growth at 10 µM (786-0): 87.9% | inhibition of growth at 10 µM (OVCAR-8): 17.3% | inhibition of growth at 10 µM (Hs-578T): 1.67% | inhibition of growth at 10 µM (ACHN): -4.96% | inhibition of growth at 10 µM (A549): 7.37% | inhibition of growth at 10 µM (NCI/ADR-RES): 5.97% | inhibition of growth at 10 µM (HOP-62): -17.8% | inhibition of growth at 10 µM (DU-145): 53% | inhibition of growth at 10 µM (MDA-MB-231): 55% | inhibition of growth at 10 µM (SR): 84% | inhibition of growth at 10 µM (U-251): 28.7% | inhibition of growth at 10 µM (MDA-MB-435): 23% | inhibition of growth at 10 µM (SK-MEL-5): 28.7% | inhibition of growth at 10 µM (UO-31): 25.6% | inhibition of growth at 10 µM (CAKI-1): 7.14% | inhibition of growth at 10 µM (HL-60(TB)): 66.6% | inhibition of growth at 10 µM (NCI-H522): 164% | inhibition of growth at 10 µM (PC-3): 35.3% | inhibition of growth at 10 µM (KM12): 38.4% | inhibition of growth at 10 µM (MCF7): 72.4% | inhibition of growth at 10 µM (SF-295): 1.17% | inhibition of growth at 10 µM (SN12C): 52.2% | inhibition of growth at 10 µM (TK-10): -5.51% | inhibition of growth at 10 µM (MOLT-4): 93.8% | inhibition of growth at 10 µM (NCI-H226): 16.3% | inhibition of growth at 10 µM (MDA-MB-468): 95.7% | inhibition of growth at 10 µM (UACC-62): 62% | inhibition of growth at 10 µM (K562): 91.6% | inhibition of growth at 10 µM (BT-549): 85.5% | inhibition of growth at 10 µM (NCI-H460): 7.45% | inhibition of growth at 10 µM (RXF 393): 0.08% | inhibition of growth at 10 µM (OVCAR-4): 32.8% | inhibition of growth at 10 µM (COLO 205): 1.47% | inhibition of growth at 10 µM (OVCAR-3): 65.7%

O=C(CNc1nc(-c2ccc(Cl)cc2)cs1)Nc1ccc(-c2nc3ccccc3s2)cc1
inhibition of growth at 10 µM (NCI-H23): 12.4% | inhibition of growth at 10 µM (CCRF-CEM): 7.04% | inhibition of growth at 10 µM (HCT-116): 4.49% | inhibition of growth at 10 µM (LOX IMVI): 4.39% | inhibition of growth at 10 µM (NCI-H322M): 8.37% | inhibition of growth at 10 µM (SK-OV-3): 4.97% | inhibition of growth at 10 µM (M14): 11.8% | inhibition of growth at 10 µM (IGROV-1): 40.9% | inhibition of growth at 10 µM (SF-539): 3.03% | inhibition of growth at 10 µM (HT-29): -8.34% | inhibition of growth at 10 µM (786-0): -9.09% | inhibition of growth at 10 µM (OVCAR-8): 2.01% | inhibition of growth at 10 µM (Hs-578T): 8.73% | inhibition of growth at 10 µM (ACHN): -5.08% | inhibition of growth at 10 µM (A549): 0.99% | inhibition of growth at 10 µM (NCI/ADR-RES): 5.81% | inhibition of growth at 10 µM (HOP-62): -6.21% | inhibition of growth at 10 µM (DU-145): 5.04% | inhibition of growth at 10 µM (MDA-MB-231): 15.3% | inhibition of growth at 10 µM (SR): 10.3% | inhibition of growth at 10 µM (U-251): 8.44% | inhibition of growth at 10 µM (MDA-MB-435): -4.48% | inhibition of growth at 10 µM (SK-MEL-5): 12.3% | inhibition of growth at 10 µM (UO-31): 25.1% | inhibition of growth at 10 µM (CAKI-1): 5.79% | inhibition of growth at 10 µM (HL-60(TB)): 0.71% | inhibition of growth at 10 µM (NCI-H522): 6.86% | inhibition of growth at 10 µM (PC-3): 9.25% | inhibition of growth at 10 µM (KM12): 0.97% | inhibition of growth at 10 µM (MCF7): 70.2% | inhibition of growth at 10 µM (SF-295): 1.37% | inhibition of growth at 10 µM (SN12C): -0.85% | inhibition of growth at 10 µM (TK-10): 33.5% | inhibition of growth at 10 µM (MOLT-4): 7.26% | inhibition of growth at 10 µM (NCI-H226): 19.7% | inhibition of growth at 10 µM (MDA-MB-468): 140% | inhibition of growth at 10 µM (UACC-62): 8.08% | inhibition of growth at 10 µM (K562): 3.58% | inhibition of growth at 10 µM (BT-549): -6.9% | inhibition of growth at 10 µM (NCI-H460): 8.75% | inhibition of growth at 10 µM (RXF 393): -6.02% | inhibition of growth at 10 µM (OVCAR-4): 29.5% | inhibition of growth at 10 µM (COLO 205): 6.21% | inhibition of growth at 10 µM (OVCAR-3): 5.97%
